Measured values taken from patent US8158389B2, “Products and methods for in vivo secretion of monatin” (priority 2005, dated 2012).

Tested on: E. coli MG1655 ΔAcrAB
Assay: Monatin excretion with 2.5 mM sodium decanoate, E. coli MG1655 ΔAcrAB strains with pUC19, robA, ramA or baeR (24, 30, 48 h)
Type: cell-based, Escherichia coli
Protocol: Conditions for the treatments included 250 rpm agitation throughout and 37° C. up to induction, then, 30° C. following induction. At 0.30-0.50 OD600 nm, induction of the plasmid genes was initiated. At induction, 1.0 mM IPTG, 0.5% L-arabinose, 0.5 mM pyridoxine hydrochloride, and 0.2 mLs of Balch's vitamins were added. Additions of 10 g/L L-tryptophan, 10 g/L sodium pyruvate, 0.04 mM pyridoxal-5′-phosphate (“PLP”) and 0.2% Tween® 20 (polyoxyethylene 20-sorbitan monolaurate) were made 3 hours following induction. Some treatments included 2.5 mM sodium decanoate addition at 3 hours following induction.
Conditions for the treatments included 250 rpm agitation throughout and 37° C. up to induction, then, 30° C. following induction. At an OD600 nm between 0.30-0.50, induction of the plasmid genes was initiated. At induction, 1.0 mM IPTG, 0.5% L-arabinose, 0.5 mM pyridoxine hydrochloride, and 0.2 mLs of Balch's vitamins were added. Additions of 10 g/L L-tryptophan, 10 g/L sodium pyruvate, 0.04 mM pyridoxal-5′-phosphate (“PLP”) and 0.2% Tween® 20 (polyoxyethylene 20-sorbitan monolaurate) were made 3 hours following induction. Some treatments included 2.5 mM sodium decanoate addition at 3 hours following induction.
Conditions for the treatments included 250 rpm agitation throughout and 37° C. up to induction, then, 30° C. following induction. At 0.35-0.38 OD600 nm, induction of the plasmid genes was initiated. At induction, 1.0 mM IPTG, 0.5% L-arabinose, 0.5 mM pyridoxine hydrochloride, and 0.2 mLs of Balch's vitamins were added. Additions of 10 g/L L-tryptophan, 10 g/L sodium pyruvate, 0.04 mM pyridoxal-5′-phosphate (“PLP”) and 0.2% Tween® 20 (polyoxyethylene 20-sorbitan monolaurate) were made 3.5 hours following induction. At 24 hours after inoculation, another 10 g/L increment of sodium pyruvate was added to each flask. Some treatments included 2.5 mM sodium decanoate addition at 3.5 hours following induction.

[1] = ΔAcrAB::aspC proA pProNde del robA pUC19, n = 2
[2] = ΔAcrAB::aspC proA pProNde del, ramA pUC19, n = 2
[3] = ΔAcrAB::aspC proA pProNdedel, pUC19 (control), n = 2
[4] = ΔacrAB AspC ProA pProNde del BaeR pUC19, n = 2

Compound: CCCCCCCCCC(=O)[O-].[Na+] [sodium decanoate]
- Monatin/dcw, 24 hours [1]: 45.7 mg/g
- Monatin/dcw, 30 hours [1]: 58.6 mg/g
- Monatin/dcw, 48 hours [1]: 81.7 mg/g
- Monatin/dcw, 24 hours [2]: 32.3 mg/g
- Monatin/dcw, 30 hours [2]: 41.7 mg/g
- Monatin/dcw, 48 hours [2]: 61.1 mg/g
- Monatin/dcw, 24 hours [3]: 10.7 mg/g
- Monatin/dcw, 30 hours [3]: 29.7 mg/g
- Monatin/dcw, 48 hours [3]: 39.3 mg/g
- Mean monatin per dry cell weight, 24 hours [4]: 34.4 mg/g
- Mean monatin per dry cell weight, 30 hours [4]: 85.0 mg/g
- Mean monatin per dry cell weight, 48 hours [4]: 137.3 mg/g
